In PMC8111447 (Frontiers in Pharmacology, 2021):
Like-named read-outs stand apart in the source and are kept apart here.

Tests used:
EGFR^L858R = EGFR^L858R (Homo sapiens, UniProt P00533, L858R); experiment: EGFR kinase inhibition assay (HTRF); assay type: biochemical; settings: 30 μmol/L ATP, no pre-incubation, n = 3
Protocol: (§1) The sequence of the substrate is proprietary to CisBio. […] Kinase activity assays were performed in a total reaction volume of 3 μl per well. […] The substrate mixture (1.5 μl) consisted of 1 μmol/L TK substrate, 30 μmol/L ATP, 1 mmol/L DTT, and 10 mmol/L MgCl2. […] The plates were incubated for 1 h before being read on Pherastar using standard HTRF settings. […] There was no pre-incubation of the test compounds with the enzyme/substrate mixture prior to ATP addition. For IC50 calculation, data were analyzed using XLFit version 5.3.

EGFR^L861Q = EGFR^L861Q (Homo sapiens, UniProt P00533, L861Q); experiment: EGFR kinase inhibition assay (HTRF); assay type: biochemical; settings: 30 μmol/L ATP, no pre-incubation, n = 3
Sequence of EGFR^L861Q (P00533 25-1210 L861Q): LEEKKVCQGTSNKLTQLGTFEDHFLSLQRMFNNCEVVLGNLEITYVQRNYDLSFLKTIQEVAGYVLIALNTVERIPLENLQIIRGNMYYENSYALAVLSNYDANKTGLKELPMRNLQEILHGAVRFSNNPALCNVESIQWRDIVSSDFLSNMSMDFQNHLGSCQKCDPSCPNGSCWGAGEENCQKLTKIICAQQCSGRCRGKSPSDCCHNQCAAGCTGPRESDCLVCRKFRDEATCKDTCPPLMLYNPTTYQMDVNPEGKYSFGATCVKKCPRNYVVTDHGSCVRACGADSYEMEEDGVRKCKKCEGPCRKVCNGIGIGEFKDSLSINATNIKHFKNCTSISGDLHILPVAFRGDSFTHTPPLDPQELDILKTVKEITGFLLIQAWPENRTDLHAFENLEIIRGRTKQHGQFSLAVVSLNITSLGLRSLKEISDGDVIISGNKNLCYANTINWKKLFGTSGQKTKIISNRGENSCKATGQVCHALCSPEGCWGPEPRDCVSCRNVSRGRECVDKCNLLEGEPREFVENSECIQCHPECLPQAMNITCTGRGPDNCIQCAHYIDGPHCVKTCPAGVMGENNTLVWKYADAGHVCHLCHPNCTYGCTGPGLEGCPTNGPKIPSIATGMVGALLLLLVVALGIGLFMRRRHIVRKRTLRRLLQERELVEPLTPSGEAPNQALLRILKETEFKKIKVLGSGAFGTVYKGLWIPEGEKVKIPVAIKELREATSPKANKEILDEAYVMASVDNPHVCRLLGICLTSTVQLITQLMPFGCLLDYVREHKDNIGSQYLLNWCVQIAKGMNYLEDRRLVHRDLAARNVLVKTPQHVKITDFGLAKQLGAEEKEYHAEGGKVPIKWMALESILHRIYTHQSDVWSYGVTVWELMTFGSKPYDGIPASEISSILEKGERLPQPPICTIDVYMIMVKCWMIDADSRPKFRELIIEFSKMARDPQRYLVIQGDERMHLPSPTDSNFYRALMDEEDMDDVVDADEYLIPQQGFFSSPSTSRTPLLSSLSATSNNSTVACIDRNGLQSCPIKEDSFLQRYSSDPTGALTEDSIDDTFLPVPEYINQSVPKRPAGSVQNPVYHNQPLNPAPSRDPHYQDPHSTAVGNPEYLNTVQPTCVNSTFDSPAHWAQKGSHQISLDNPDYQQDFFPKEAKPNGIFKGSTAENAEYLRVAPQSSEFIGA
Protocol: as §1

EGFR^d746–750 = EGFR^d746–750 (Homo sapiens, UniProt P00533, DEL746-750); experiment: EGFR kinase inhibition assay (HTRF); assay type: biochemical; settings: 30 μmol/L ATP, no pre-incubation, n = 3
Sequence of EGFR^d746–750 (P00533 with tags, fused parts or gaps DEL746-750): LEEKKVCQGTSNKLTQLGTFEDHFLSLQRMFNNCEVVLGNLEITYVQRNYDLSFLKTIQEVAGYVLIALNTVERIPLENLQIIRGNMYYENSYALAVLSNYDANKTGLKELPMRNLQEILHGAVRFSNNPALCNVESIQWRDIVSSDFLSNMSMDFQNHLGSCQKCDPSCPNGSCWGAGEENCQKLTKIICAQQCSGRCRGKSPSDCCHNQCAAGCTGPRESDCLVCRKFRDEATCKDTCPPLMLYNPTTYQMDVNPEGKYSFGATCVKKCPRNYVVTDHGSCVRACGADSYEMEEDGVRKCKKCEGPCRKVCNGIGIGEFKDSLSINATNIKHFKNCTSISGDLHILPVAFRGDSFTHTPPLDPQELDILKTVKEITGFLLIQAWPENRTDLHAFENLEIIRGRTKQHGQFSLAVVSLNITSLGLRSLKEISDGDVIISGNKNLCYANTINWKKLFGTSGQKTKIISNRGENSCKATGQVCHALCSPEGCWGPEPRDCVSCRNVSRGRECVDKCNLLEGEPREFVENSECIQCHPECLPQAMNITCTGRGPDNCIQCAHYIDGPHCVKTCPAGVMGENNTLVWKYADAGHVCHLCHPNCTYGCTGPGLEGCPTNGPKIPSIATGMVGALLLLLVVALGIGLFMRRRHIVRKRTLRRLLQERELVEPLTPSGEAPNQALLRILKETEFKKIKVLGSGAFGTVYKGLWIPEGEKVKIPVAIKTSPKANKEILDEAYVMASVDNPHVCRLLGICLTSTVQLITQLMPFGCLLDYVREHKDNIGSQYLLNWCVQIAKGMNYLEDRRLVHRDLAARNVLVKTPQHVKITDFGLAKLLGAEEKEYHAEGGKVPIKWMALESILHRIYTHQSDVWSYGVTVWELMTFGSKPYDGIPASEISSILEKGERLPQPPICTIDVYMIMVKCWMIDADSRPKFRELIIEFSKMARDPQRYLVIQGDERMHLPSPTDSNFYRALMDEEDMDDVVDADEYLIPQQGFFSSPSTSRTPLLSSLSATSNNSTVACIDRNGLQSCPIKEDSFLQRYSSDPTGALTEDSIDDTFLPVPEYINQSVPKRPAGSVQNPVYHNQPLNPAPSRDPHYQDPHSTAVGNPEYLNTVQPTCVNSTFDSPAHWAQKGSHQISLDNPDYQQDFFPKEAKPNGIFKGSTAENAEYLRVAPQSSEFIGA
Protocol: as §1

EGFR^d746–750/T790M = EGFR^d746–750/T790M (Homo sapiens, UniProt P00533, DEL746-750/T790M); experiment: EGFR kinase inhibition assay (HTRF); assay type: biochemical; settings: 30 μmol/L ATP, no pre-incubation, n = 3
Sequence of EGFR^d746–750/T790M (P00533 with tags, fused parts or gaps DEL746-750/T790M): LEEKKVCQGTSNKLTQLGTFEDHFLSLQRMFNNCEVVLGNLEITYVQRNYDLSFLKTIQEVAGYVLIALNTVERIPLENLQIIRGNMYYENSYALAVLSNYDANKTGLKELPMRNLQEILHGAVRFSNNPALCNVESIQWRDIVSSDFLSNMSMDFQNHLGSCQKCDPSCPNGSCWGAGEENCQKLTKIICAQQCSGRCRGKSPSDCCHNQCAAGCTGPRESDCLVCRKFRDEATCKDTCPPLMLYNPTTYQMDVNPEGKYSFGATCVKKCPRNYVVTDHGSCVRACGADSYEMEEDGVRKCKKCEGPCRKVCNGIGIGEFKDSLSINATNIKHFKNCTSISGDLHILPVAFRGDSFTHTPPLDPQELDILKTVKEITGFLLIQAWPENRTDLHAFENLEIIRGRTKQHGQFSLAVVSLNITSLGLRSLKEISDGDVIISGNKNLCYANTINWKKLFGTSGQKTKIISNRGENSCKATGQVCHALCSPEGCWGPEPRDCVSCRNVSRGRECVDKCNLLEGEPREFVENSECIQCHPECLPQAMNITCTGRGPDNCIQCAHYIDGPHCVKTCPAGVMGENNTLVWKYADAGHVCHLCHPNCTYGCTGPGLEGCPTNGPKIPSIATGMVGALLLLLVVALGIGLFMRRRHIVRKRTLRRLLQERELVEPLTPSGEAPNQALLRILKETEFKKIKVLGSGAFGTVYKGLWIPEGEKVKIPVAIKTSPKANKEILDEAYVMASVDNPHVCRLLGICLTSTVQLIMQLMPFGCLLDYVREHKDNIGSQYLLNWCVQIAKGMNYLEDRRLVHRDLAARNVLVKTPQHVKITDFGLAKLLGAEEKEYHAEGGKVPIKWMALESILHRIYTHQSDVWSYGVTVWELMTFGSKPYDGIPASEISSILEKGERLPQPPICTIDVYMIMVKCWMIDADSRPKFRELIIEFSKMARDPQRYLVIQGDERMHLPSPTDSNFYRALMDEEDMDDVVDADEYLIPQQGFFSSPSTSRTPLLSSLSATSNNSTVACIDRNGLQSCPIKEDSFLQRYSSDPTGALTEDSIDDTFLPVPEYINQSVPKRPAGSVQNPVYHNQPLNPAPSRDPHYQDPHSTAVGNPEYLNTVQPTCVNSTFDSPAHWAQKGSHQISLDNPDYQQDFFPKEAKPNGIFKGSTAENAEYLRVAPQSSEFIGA
Protocol: as §1

A431 (EGFR^WT) = experiment: Cell proliferation assay (CTG, 72 h); assay type: cell-based; settings: Homo sapiens, A-431, A431 cells, mean ± SD, n = 3
Protocol: (§2) Human lung cancer cell lines (NCI-H1975, H3255 and A431) were obtained from the American Type Culture Collection (ATCC), while PC-9 cell line was supplied by the European Collection of Authenticated Cell Cultures (ECACC). For in vivo implantation, NCI-H1975, H3255 and PC-9 cells were cultured in RPMI1640 (Invitrogen) supplemented with 10% v/v fetal calf serum (Sigma-Aldrich) and 2 mmol/L L-glutamine (Invitrogen). A431 cells were cultured in DMEM (Invitrogen) supplemented with 10% v/v fetal calf serum and 2 mmol/L v/v L-glutamine. All cell lines were then cultured in a humidified incubator with 5% CO2 at 37°C.
(§3) Test compounds were dissolved in DMSO as a 10 mmol/L stock solution. The initial concentration of compounds were 10 μmol/L and the 3-fold dilution was nine times. […] Plate was shaked for 2 min and the mixture was incubated at room temperature for 10 min.
(§4) The half-maximal inhibition concentration (IC50) values were processed by GraphPad Prism7 (GraphPad Software; La Jolla, CA).

[1] = test system: NCI-H1975 (EGFR^L858R/T790M); experiment: Cell proliferation assay (CTG, 72 h); assay type: cell-based; settings: Homo sapiens, NCI-H1975 cells, mean ± SD, n = 3
Protocol: as §2, §3, §4

[2] = test system: EGFR phosphorylation (pY1068) in A431 cells; experiment: Phosphorylation of EGFR assay, time course; assay type: cell-based, human; settings: 0.1 μmol/L, 1-10 h, EGF stimulated
Protocol: (§5) Cells (NCI-H1975/PC-9/[…]) were seeded into a 384-well plate (10,000 cells/well), grown for 24 h, and then treated with different test compounds (0.1 μmol/L) for 1, 2, 4, 6, 8 and 10 h. A431 cells were stimulated with 100 ng/ml EGF after incubation for 10 min. Cells were washed with ice-cold HBSS before extraction with 25 μl cell lysis buffer. Phosphorylation of EGFR was measured using a sandwich ELISA assay with phospho-specific EGFR (pY1068) antibodies [AlphaLISA SureFire p-EGF Receptor (Tyr1068) Assay Kit, PerkinElmer].

[3] = test system: EGFR phosphorylation (pY1068) in PC-9 cells; experiment: Phosphorylation of EGFR assay, time course; assay type: cell-based, human; settings: 0.1 μmol/L, 1-10 h
Protocol: as §5

[4] = test system: NCI-H1975 (L858R/T790M) xenograft; experiment: NCI-H1975 xenograft model; assay type: in vivo, Nu/Nu nude mice; settings: for tumor growth inhibition rate: after 14 days of dosing, vs vehicle
Protocol: (§6) The female Nu/Nu nude mice were purchased from Beijing Vital River Laboratories. […] Nu/Nu nude mice were purchased from the Beijing Vital River Laboratories of China. The 6–8 weeks old female mice were inoculated subcutaneously at the right flank with approximately 3–5 × 10^6 tumor cells in 0.2 ml of medium. The treatments were started when the tumor size reached approximately 200 mm^3. […] All mice were orally administrated once daily for consecutive 14 days. Mouse body weight, tumor weight and tumor volume (TV) were measured twice per week. TV was then used for the calculation of tumor inhibitory rate and tumor regression rate.

[5] = test system: A431 (wild-type EGFR) tumor xenografts; experiment: A431 xenograft model; assay type: in vivo, Nu/Nu nude mice; settings: 5 mg/kg/day
Protocol: as §6

[6] = Plasma pharmacokinetics in NCI-H1975 tumor-bearing mice; assay type: in vivo; settings: for AUC(0-t): po, read-out: AUC0–t in plasma
Protocol: (§7) NCI-H1975 tumor-bearing mice with tumor burden of approximately 200 mm^3 were used in the pharmacokinetics and pharmacodynamics study. […] Blood samples were collected at 0 (pre-dose), 10, 30 min, 1, 2, 4, 8, and 24 h post-dose.
(§8) Ionization mode. Drug to internal standard peak area ratios for the standards were used to create a calibration curve using 1/×^2 weighted least-squares regression analysis. Concentrations of each analyte were quantified by comparing the ratios for each in-trial sample with those in the relevant calibration curve.

[7] = Tissue distribution in NCI-H1975 tumor-bearing mice; assay type: in vivo
Protocol: as §7, §8

[8] = Metabolite profiling in liver microsomes; assay type: in vitro ADME; settings: incubation 60 min at 37°C; mouse, rat, dog, monkey and human liver microsomes
Protocol: Metabolite profiling was conducted in mouse, rat, dog, monkey, and human liver microsomes in vitro as well as in rat plasma, feces, and urine samples in vivo (From other experiments). […] All samples were analyzed by the LC/MS/MS (AB Sciex, API 5500 Qtrap) system. The structures of major metabolites were elucidated based on EPI spectra and further verified using authentic standards. The main metabolite Imp3 was quantified in multiple reaction monitoring mode in rat, dog and human clinical samples.

Sequence of EGFR^L858R (P00533 25-1210 L858R): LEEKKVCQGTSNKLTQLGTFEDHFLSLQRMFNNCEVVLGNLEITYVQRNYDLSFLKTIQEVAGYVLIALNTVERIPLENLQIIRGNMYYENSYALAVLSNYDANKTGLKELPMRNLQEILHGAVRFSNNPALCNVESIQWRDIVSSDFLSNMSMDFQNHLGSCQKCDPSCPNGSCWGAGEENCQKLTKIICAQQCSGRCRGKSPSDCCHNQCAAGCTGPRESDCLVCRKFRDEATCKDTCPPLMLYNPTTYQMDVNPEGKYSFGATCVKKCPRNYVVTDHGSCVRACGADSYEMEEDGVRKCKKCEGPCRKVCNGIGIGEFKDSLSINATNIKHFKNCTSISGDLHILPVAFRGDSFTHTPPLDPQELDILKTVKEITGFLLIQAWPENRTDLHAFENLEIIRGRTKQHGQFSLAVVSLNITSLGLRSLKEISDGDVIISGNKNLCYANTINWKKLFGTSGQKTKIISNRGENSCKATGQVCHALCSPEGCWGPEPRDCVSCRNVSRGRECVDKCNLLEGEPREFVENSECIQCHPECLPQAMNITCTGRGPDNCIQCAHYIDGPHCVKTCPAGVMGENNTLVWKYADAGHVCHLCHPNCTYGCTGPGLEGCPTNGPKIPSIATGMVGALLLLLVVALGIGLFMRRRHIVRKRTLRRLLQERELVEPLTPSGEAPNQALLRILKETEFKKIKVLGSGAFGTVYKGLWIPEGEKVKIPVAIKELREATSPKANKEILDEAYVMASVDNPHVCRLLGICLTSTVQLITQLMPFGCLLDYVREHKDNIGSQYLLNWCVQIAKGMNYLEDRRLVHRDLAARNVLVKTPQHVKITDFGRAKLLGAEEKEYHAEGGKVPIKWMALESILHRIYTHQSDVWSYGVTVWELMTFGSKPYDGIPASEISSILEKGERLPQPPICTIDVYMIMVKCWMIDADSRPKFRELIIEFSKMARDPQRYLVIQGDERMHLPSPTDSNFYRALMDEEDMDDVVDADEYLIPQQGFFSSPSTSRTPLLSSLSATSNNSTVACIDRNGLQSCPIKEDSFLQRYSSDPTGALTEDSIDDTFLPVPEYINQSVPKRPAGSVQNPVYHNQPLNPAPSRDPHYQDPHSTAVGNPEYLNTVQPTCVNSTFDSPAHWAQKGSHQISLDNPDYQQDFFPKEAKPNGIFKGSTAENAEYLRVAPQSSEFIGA

For `C=CC(=O)Nc1cc(Nc2nccc(-c3c4n(c5ccccc35)CCCC4)n2)c(OC)cc1N(C)CCNC` [Imp3], the IC50 (EGFR^L858R) was 6 nM, the IC50 (EGFR^L861Q) was 32 nM and the IC50 (EGFR^d746–750) was 1.7 nM. For the same compound, the IC50 (EGFR^d746–750/T790M) was 1.1 nM, the IC50 (A431 (EGFR^WT)) was 704 ± 92.5 nM and the IC50 [1] was 6.56 ± 1.43 nM.

In the case of `C=CC(=O)Nc1cc(Nc2nccc(-c3c4n(c5ccccc35)CCCC4)n2)c(OC)cc1N(C)CCN(C)C` [SH-1028], the IC50 (EGFR^L858R) is reported as 0.7 nM, the IC50 (EGFR^L861Q) is reported as 4 nM and the IC50 (EGFR^d746–750) is reported as 1.4 nM. The IC50 (EGFR^d746–750/T790M) was 0.89 nM, the IC50 (A431 (EGFR^WT)) was 779 ± 135 nM and the IC50 [1] was 3.93 ± 1.12 nM. The “inhibitory effect on EGFR phosphorylation” value [2] was “weak inhibitory effect”, the “inhibitory effect on EGFR phosphorylation” value [3] was “stronger than that of osimertinib” and the “tumor growth inhibition rate” value ([4]; 2.5 mg/kg oral once daily) was 72.6%. The “tumor growth inhibition rate” value ([4]; 5 mg/kg oral once daily) was 91.8%, the “tumor growth inhibition rate” value ([4]; 15 mg/kg oral once daily) was 98.8% and the body weight ([4]; 2.5 to 15 mg/kg oral once daily, 14 days) was “no TKI-induced weight loss”. The tumor growth [5] was “moderate tumor growth inhibition”, the AUC(0-t) ([6]; Nu/Nu nude, mouse, plasma, 2.5 mg/kg, 2.5 mg/kg oral daily, Day 14) was 272 ng·h/mL and the AUC(0-t) ([6]; Nu/Nu nude, mouse, plasma, 2.5 mg/kg, 2.5 mg/kg oral, Day 1) was 118 ng·h/mL. For the same compound, the AUC(0-t) ([6]; Nu/Nu nude, mouse, plasma, 5 mg/kg, 5 mg/kg oral daily, Day 14) was 308 ng·h/mL, the AUC(0-t) ([6]; Nu/Nu nude, mouse, plasma, 5 mg/kg, 5 mg/kg oral, Day 1) was 300 ng·h/mL and the AUC(0-t) ([6]; Nu/Nu nude, mouse, plasma, 15 mg/kg, 15 mg/kg oral daily, Day 14) was 993 ng·h/mL. For the same compound, the AUC(0-t) ([6]; Nu/Nu nude, mouse, plasma, 15 mg/kg, 15 mg/kg oral, Day 1) was 931 ng·h/mL, the Tmax ([6]; Nu/Nu nude, mouse, plasma, oral 2.5, 5 and 15 mg/kg) was 1.5 to 2 h and the “accumulation between Days 1–14” value ([6]; oral daily dosing for 14 days) was “no significant accumulation”. For the same compound, the “distribution into tissues (tumor tissues, adjacent lung tissues and brain)” value ([7]; 15 mg/kg oral, within 2 h, Day 1) was “rapidly and extensively distributed into tissues”, the blood-brain barrier penetration ([7]; pharmacokinetic experiments) was “could penetrate the blood-brain barrier” and the “number of metabolites detected” value [8] was 27.
